# Experimental data published in US7855049B2, “Inositol pyrophosphates determine exocytotic capacity” (BioCrine AB, priority 2007, dated 2010).
# Legend:
# Format in all cases: cell-based
# mouse β-cells [1] = assay: Capacitance measurement of exocytosis, standard whole-cell patch, inositol phosphate in the pipette-filling solution
# Method: Cells expressing EGFP were selected for capacitance measurements. Exocytosis was monitored as changes in cell capacitance using either the perforated patch or standard whole-cell configuration of the patch-clamp technique and an EPC9 patch-clamp amplifier (Heka Elektronik, Lambrecht/Pfalz, Germany). The pipette solution for the perforated patch configuration consisted of (in mM) 76 Cs2SO4, 10 NaCl, 10 KCl, 1 MgCl2, 5 HEPES (pH 7.35 with CsOH) and 0.24 mg/ml amphotericin B. Perforation required a few minutes, and the voltage clamp was considered satisfactory when the Gseries (series conductance) was stable and >35 nS. The pipette solution used for standard whole-cell recordings contained (in mM) 125 Cs-glutamate, 10 CsCl, 10 NaCl, 1 MgCl2, 5 HEPES, 0.05 EGTA, 0.01 GTP and 3 MgATP (pH 7.15 using CsOH). InsP7 isomers were dissolved in the pipette-filling solution to the final concentrations indicated in the text and kept on ice until use. The extracellular medium was composed of (in mM) 118 NaCl, 20 tetraethylammonium-Cl, 5.6 KCl, 1.2 MgCl2, 2.6 CaCl2, 5 HEPES (pH 7.40 using NaOH) and 3 glucose. The stimulation protocol consisted of trains of four 500-ms depolarizations applied at 1 Hz and went from −70 mV to zero mV. The capacitance measurements were performed at 33° C. and the recording chamber was perfused at a rate of 1.5 ml/min.
# An important concern is that IP6K's can also use InsP5 as a substrate, generating a different subset of inositol pyrophosphates (4). Therefore, it was necessary to verify that InsP7 is able to directly promote exocytosis. The mammalian InsP7 is the 5-isomer and this was used in detailed experiments (FIG. 3A-D). We also assessed other theoretical isomers of InsP7 (FIG. 3E). To measure the effects of 5-InsP7 on exocytosis, we applied trains of depolarizations in standard whole-cell experiments where the β-cell was dialyzed with a solution containing 3 μM InsP7. Following establishment of the whole-cell configuration, the cell was allowed two minutes equilibration period. A train consisting of four 500 ms depolarizations from −70 mV to 0 mV was then applied to evoke exocytosis. In a series of six experiments, the total increase in cell capacitance amounted to 231+/−12 fF (P<0.01) in the presence of 3 μM InsP7 in the pipette-filling solution and 77+/−11 fF under control conditions, respectively (FIG. 3A). […] The stimulatory action of 5-InsP7 on exocytosis was concentration dependent (FIG. 3D). […] At higher concentrations, 5-InsP7 stimulated exocytosis by 90-410%. Approximating the average data points to the Hill equation yielded a half-maximal stimulatory effect of 1.02 μM and a co-operativity factor of 1.5. […] Thus, 5-InsP7 dose-dependently enhances exocytosis within the physiological range of InsP7 concentrations (1-10 μM). […] This is because the effect of InsP6 on exocytosis can only be discerned under conditions in which endocytosis is inhibited (15). This is not the case for InsP7. […] Our data illustrate that InsP7 and InsP6 have distinct effects on exocytosis.
# [2] = test system: whole-cell Ca2+ current in mouse β-cells; assay: Whole-cell Ca2+ current (integrated Ca2+ current) during depolarization train; conditions: 3 μM in the pipette-filling solution
# Method: FIG. 3. InsP7 dose-dependently promotes Ca2+-dependent exocytosis. Individual mouse β-cells were subjected to a train of four 500-ms depolarizations using the standard whole-cell patch configuration. (A) Exocytosis was observed under control conditions and in the presence of 3 μM 5-InsP7 in the pipette-filling solution. 5-InsP7 was allowed to diffuse into the cell for 2 min before initiation of the experiment. (B) Histogram summarizing the average increases in cell capacitance plotted against the individual depolarizations as well as the total increases in cell capacitance at the end of the train in the absence or presence of 3 μM 5-InsP7 in the pipette-filling solution. (C) Histogram showing integrated Ca2+ current (QCa) plotted against the individual depolarizations in the absence or presence of 3 μM InsP7 in the pipette-filling solution. (D) Concentration dependence of stimulatory action of 5-InsP7 on exocytosis evoked by a single membrane depolarization from −70 mV to zero. The curve represents a least-squares fit of the mean data points to the Hill equation. […]
# Cells expressing EGFP were selected for capacitance measurements. Exocytosis was monitored as changes in cell capacitance using either the perforated patch or standard whole-cell configuration of the patch-clamp technique and an EPC9 patch-clamp amplifier (Heka Elektronik, Lambrecht/Pfalz, Germany). […]
# mouse β-cells [3] = assay: Capacitance measurement of exocytosis, standard whole-cell patch, inositol phosphate in the pipette-filling solution; parameters: dose or concentration left out as unconfirmed; conditions: at InsP7; single depolarization from −70 mV to zero
# [4] = in the presence of 5-InsP7 (3 μM)
SMILES,concentration giving maximal stimulation of exocytosis (mouse β-cells [1]),"total increase in cell capacitance (mouse β-cells [1]; 3 μM InsP7 in the pipette-filling solution, train of four 500 ms depolarizations, six experiments)","EC50 (mouse β-cells [1]; Hill equation fit of average data points, read-out: half-maximal stimulatory effect on exocytosis)",maximal stimulation of exocytosis (mouse β-cells [1]; at InsP7 ≧10 μM),"stimulation of exocytosis (mouse β-cells [1]; at higher concentrations (above 0.1), single depolarization)",capacitance increase evoked by the first depolarization (mouse β-cells [1]; [4]),exocytosis in response to the subsequent 3 depolarizations (mouse β-cells [1]; [4]),"exocytotic response in cells with IP6K1 silenced (mouse β-cells [1]; whole cell mode, IP6K1 siRNA-treated primary β-cells)",change in the whole-cell Ca2+ current [2],stimulation of exocytosis at low concentration (mouse β-cells [3]),"net effect on exocytosis/endocytosis (mouse β-cells [1]; same conditions as for InsP7, 10 μM InsP6 in the pipette-filling solution)",selective promotion of secretion from the RRP (mouse β-cells [1]; when endocytosis is inhibited (data not shown))
"O=P(O)(O)OC1[C@@H](OP(=O)(O)O)[C@H](OP(=O)(O)O)C(OP(=O)(O)OP(=O)(O)O)[C@H](OP(=O)(O)O)[C@H]1OP(=O)(O)O (stereo partly drawn) [5-InsP7, 5-Diphosphoinositol pentakisphosphate]",≥ 10 µM,231+/−12 fF,1020 nM,> 380%,90-410%,strongly stimulated,only little effect,restore normal exocytotic response,not associated with a change,No stimulation,,
O=P(O)(O)O[C@H]1[C@H](OP(=O)(O)O)[C@@H](OP(=O)(O)O)[C@H](OP(=O)(O)O)[C@@H](OP(=O)(O)O)[C@H]1OP(=O)(O)O [InsP6],,,,,,,,,,,promote endocytosis not exocytosis,does not selectively promote secretion from the RRP
